ChEMBL document CHEMBL1131757, “4,10-dihydro-5H-thieno[3,2-c][1]benzazepine derivatives and 9,10-dihydro-4H-thieno[2,3-c][1]benzazepine derivatives as orally active arginine vasopressin receptor antagonists” (Bioorg Med Chem Lett, 1999)

Key:
Vasopressin V2 receptor = Vasopressin V2 receptor (Homo sapiens, UniProt P30518); test: In vitro inhibition of [3H]AVP binding to human V2 receptor from murine fibroblast cell line (LV2); assay type: cell-based
Rattus norvegicus = test: Amount of urine output was measured in rat at a dose of 10 mg/kg administered orally; assay type: ADME, organism-based; parameters: dose 10 mg/kg, route oral; conditions: in vivo, po
Vasopressin V1a receptor [1] = molecular target: T1, Vasopressin V1a receptor (Homo sapiens, UniProt P37288); test: In vitro inhibition of [3H]- AVP binding to V1a receptor from human platelet membrane
Target sequence in this assay (P37288 whole entry): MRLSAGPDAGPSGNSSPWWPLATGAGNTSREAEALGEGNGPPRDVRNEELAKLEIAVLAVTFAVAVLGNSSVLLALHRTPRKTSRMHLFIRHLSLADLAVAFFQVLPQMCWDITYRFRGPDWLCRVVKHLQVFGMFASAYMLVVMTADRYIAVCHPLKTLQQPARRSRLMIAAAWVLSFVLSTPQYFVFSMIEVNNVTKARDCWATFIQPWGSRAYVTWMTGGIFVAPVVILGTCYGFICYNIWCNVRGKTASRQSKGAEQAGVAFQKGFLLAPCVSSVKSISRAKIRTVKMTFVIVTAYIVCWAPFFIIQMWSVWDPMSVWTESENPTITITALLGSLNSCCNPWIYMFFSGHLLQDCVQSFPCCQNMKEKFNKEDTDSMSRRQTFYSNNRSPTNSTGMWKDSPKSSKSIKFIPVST

Vasopressin V1a receptor [2] = molecular target: T1, Vasopressin V1a receptor; test: In vitro inhibition of [3H]- AVP binding to V1a receptor from human platelet membrane at 10 uM
Target sequence in this assay (P37288 whole entry, looked up): as the sequence (P37288 whole entry) above

Sequence of Vasopressin V2 receptor (P30518 whole entry): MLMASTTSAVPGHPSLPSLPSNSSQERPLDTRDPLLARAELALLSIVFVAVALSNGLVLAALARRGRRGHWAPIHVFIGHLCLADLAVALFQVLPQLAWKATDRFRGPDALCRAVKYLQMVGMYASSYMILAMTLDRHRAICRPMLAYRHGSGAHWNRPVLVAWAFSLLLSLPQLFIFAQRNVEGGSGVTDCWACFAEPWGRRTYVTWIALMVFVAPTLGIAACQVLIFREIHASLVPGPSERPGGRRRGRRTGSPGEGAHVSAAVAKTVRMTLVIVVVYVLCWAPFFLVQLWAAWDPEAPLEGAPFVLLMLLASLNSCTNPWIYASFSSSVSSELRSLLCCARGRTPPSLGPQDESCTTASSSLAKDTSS

Row | Compound | IC50 (Vasopressin V2 receptor) | Urine volume (Rattus norvegicus) | IC50 (Vasopressin V1a receptor [1]) | inhibition (Vasopressin V1a receptor [2])
1 | Cc1ccccc1C(=O)Nc1ccc(C(=O)N2Cc3sccc3Cc3ccccc32)cc1 | 0.7 nM | 13.5 ml 4hr-1 | 8.5 nM | 
2 | Cc1ccccc1C(=O)Nc1ccc(C(=O)N2Cc3ccsc3Cc3ccccc32)cc1 |  | 4.5 ml 4hr-1 |  | 
3 | Cc1ccc(F)cc1C(=O)Nc1ccc(C(=O)N2Cc3sccc3Cc3ccccc32)cn1 |  | 16.5 ml 4hr-1 |  | 
4 | Cc1ccc(F)cc1C(=O)Nc1ccc(C(=O)N2Cc3sccc3Cc3ccccc32)c(Cl)c1 | 6.8 nM | 30 ml 4hr-1 |  | 59%
5 | O=C(Nc1ccc(C(=O)N2Cc3sccc3Cc3ccccc32)cc1)c1ccc(Cl)cc1Cl | 19 nM | 5.8 ml 4hr-1 | 43 nM | 
6 | Cc1ccc(F)cc1C(=O)Nc1ccc(C(=O)N2Cc3cccn3Cc3ccccc32)c(Cl)c1 [LIXIVAPTAN] |  | 35 ml 4hr-1 |  | 
